Reference: ChEMBL document CHEMBL1151870, “Synthetic studies in butenonyl C-glycosides: Preparation of polyfunctional alkanonyl glycosides and their enzyme inhibitory activity” (Bioorg Med Chem Lett, 2009)
pIC50: −log10 of the molar value.

Assays:
[1] = target: T1, Glucose-6-phosphatase catalytic subunit 1 (Rattus norvegicus) (UniProt P43428); test: Inhibition of rat liver glucose-6-phosphatase at 100 uM
T1 sequence (whole entry): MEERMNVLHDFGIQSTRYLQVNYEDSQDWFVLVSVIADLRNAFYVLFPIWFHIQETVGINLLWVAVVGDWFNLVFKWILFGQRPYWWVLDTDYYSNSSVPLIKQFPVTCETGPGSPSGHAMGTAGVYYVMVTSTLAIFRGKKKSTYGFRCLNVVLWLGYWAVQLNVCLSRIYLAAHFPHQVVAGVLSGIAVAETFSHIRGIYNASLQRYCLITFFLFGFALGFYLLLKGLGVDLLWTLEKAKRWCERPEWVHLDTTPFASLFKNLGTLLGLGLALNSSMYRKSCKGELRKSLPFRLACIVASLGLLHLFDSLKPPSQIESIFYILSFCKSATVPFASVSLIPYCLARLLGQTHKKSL

[2] = target: T2, Glycogen phosphorylase, liver form (Rattus norvegicus) (UniProt P09811); test: Inhibition of rat liver glycogen […] at 100 uM
T2 sequence (whole entry): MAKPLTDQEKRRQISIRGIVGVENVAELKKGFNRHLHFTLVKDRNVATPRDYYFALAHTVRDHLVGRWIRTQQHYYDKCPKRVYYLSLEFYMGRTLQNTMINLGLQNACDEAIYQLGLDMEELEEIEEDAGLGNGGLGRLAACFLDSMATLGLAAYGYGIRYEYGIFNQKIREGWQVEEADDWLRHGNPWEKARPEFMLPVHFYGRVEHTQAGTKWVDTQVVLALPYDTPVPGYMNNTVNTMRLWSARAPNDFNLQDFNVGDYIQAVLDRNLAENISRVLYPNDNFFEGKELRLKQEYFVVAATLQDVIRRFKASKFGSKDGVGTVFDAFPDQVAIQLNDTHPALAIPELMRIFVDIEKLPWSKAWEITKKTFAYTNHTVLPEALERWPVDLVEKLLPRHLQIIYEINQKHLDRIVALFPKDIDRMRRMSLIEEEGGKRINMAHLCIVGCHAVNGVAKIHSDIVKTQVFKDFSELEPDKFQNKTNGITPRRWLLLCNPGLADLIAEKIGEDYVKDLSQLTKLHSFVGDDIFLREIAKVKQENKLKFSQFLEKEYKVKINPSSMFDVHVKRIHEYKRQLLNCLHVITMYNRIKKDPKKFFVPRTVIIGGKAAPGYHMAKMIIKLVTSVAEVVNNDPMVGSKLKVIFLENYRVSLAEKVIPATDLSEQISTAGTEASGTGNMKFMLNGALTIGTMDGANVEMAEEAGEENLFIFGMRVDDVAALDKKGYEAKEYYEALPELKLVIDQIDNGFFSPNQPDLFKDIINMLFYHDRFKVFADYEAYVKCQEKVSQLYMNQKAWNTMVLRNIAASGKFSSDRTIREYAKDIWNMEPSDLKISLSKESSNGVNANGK

[3] = test system: Rattus norvegicus; test: Antihyperglycemic activity against sucrose-challenged streptozotocin-induced fasted Sprague-Dawley rat assessed as reduction in hyperglycemia at 100 mg/kg, po administered 30 mins before sucrose challenge measured after 24 hrs post sucrose dose relative to control; assay type: functional; parameters: scale not given: the % may be the effect or the level left
[4] = test system: Rattus norvegicus; test: Antihyperglycemic activity against sucrose-challenged fasted Wistar rat assessed as reduction in blood glucose at 100 mg/kg, po administered 30 mins before sucrose challenge measured after 30 mins post sucrose dose relative to control; assay type: functional; parameters: scale not given: the % may be the effect or the level left
[5] = target: T3, Glycogen phosphorylase, liver form (Rattus norvegicus, UniProt P09811); test: Inhibition of rat liver glycogen […]
T3 sequence (P09811 whole entry): T2 sequence (whole entry)

[6] = test system: Rattus norvegicus; test: Antihyperglycemic activity against sucrose-challenged streptozotocin-induced fasted Sprague-Dawley rat assessed as reduction in hyperglycemia at 100 mg/kg, po administered 30 mins before sucrose challenge measured after 5 hrs post sucrose dose relative to control; assay type: functional; parameters: scale not given: the % may be the effect or the level left
[7] = target: Lysosomal alpha-glucosidase (Rattus norvegicus) (UniProt Q6P7A9); test: Inhibition of rat intestinal alpha-glucosidase at 100 uM
[8] = target: T4, Glucose-6-phosphatase catalytic subunit 1 (Rattus norvegicus, UniProt P43428); test: Inhibition of rat liver glucose-6-phosphatase
T4 sequence (P43428 whole entry): T1 sequence (whole entry)

Lysosomal alpha-glucosidase (Rattus norvegicus), sequence (Q6P7A9 whole entry): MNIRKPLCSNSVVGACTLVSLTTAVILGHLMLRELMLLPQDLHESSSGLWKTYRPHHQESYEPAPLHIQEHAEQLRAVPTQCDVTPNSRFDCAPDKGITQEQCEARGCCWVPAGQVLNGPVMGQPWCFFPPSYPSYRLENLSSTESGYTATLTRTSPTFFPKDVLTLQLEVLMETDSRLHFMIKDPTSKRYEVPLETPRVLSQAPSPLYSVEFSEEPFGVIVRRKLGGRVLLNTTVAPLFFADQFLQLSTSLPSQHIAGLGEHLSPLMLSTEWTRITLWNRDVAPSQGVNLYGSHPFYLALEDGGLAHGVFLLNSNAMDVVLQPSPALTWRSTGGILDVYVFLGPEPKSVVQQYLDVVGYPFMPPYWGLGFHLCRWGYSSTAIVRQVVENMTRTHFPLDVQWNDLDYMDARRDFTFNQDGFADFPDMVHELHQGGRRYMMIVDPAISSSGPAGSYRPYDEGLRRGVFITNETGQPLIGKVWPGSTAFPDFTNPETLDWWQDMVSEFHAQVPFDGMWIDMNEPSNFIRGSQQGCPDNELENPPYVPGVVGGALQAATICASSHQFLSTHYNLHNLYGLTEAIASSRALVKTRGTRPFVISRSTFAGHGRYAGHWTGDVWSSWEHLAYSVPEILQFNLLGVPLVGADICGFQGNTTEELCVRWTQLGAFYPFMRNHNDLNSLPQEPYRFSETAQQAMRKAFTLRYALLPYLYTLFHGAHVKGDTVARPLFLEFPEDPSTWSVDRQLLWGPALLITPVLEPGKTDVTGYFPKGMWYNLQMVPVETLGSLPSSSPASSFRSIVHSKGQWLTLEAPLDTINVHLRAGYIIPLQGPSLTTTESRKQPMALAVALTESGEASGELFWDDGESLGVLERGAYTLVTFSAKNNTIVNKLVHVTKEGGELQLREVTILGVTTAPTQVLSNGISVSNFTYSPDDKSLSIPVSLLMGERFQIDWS

inhibition [1]	inhibition [2]	SMILES	also measured
-3.3%		CCOC(=O)C(C(=O)OCC)C(CC(=O)C[C@@H]1O[C@H](CO)[C@@H](O)[C@H](O)[C@H]1O)c1ccccc1 (mixture of isomers)	
	7.3%	O=C(/C=C/c1ccccc1)C[C@@H]1O[C@H](CO)[C@@H](O)[C@H](O)[C@H]1O	Activity [3]: 12.1%; pIC50 [8]: 4.06; Activity [4]: 19.5%; Activity [6]: 2.91%
4.7%		COc1cc(/C=C/C(=O)C[C@@H]2O[C@H](CO)[C@@H](O)[C@H](O)[C@H]2O)cc(OC)c1OC	
-6%	-5.4%	CCOC(=O)C(C(=O)OCC)C(CC(=O)C[C@@H]1O[C@H](CO)[C@@H](O)[C@H](O)[C@H]1O)c1ccc(Cl)cc1 (mixture of isomers)	inhibition [7]: -10%
8%	15.6%	O=C(/C=C/c1cccc([N+](=O)[O-])c1)C[C@@H]1O[C@H](CO)[C@@H](O)[C@H](O)[C@H]1O	inhibition [7]: -10%

The next lines start with the molecule.

SMILES	inhibition [1]	inhibition [2]	also measured
O=C(/C=C/c1ccc(O)cc1)C[C@@H]1O[C@H](CO)[C@@H](O)[C@H](O)[C@H]1O	4.2%	-3.4%	
O=C(/C=C/c1ccc2ccccc2c1)C[C@@H]1O[C@H](CO)[C@@H](O)[C@H](O)[C@H]1O	-7.7%		Activity [3]: 10.3%; Activity [4]: 25%; pIC50 [5]: 4.01; Activity [6]: 14.2%
CCOC(=O)C(C(=O)OCC)C(CC(=O)C[C@@H]1O[C@H](CO)[C@@H](O)[C@H](O)[C@H]1O)c1ccc(OC)c(OC)c1 (mixture of isomers)	36.2%	24%	inhibition [7]: -2.3%
COc1ccc(/C=C/C(=O)C[C@@H]2O[C@H](CO)[C@@H](O)[C@H](O)[C@H]2O)cc1OC	15%	-5.9%	Activity [3]: 13.4%; Activity [4]: 26.7%; Activity [6]: 14.1%
O=C(/C=C/c1cccnc1)C[C@@H]1O[C@H](CO)[C@@H](O)[C@H](O)[C@H]1O	-8.1%		
O=C(/C=C/c1ccc(Cl)cc1)C[C@@H]1O[C@H](CO)[C@@H](O)[C@H](O)[C@H]1O			inhibition [7]: -5.97%
O=C(/C=C/c1ccc2ccccc2c1)C[C@@H]1O[C@H](CO)[C@@H](O[C@@H]2O[C@H](CO)[C@@H](O)[C@H](O)[C@H]2O)[C@H](O)[C@H]1O	-3.9%	-8.3%	
O=C(/C=C/c1ccc(Cl)cc1)C[C@@H]1OC[C@@H](O)[C@H](O)[C@H]1O	4.7%		inhibition [7]: -8.3%
COc1ccc(/C=C/C(=O)C[C@@H]2O[C@H](CO)[C@@H](O)[C@H](O)[C@H]2O)cc1	-9.7%		
CCOC(=O)C(C(=O)OCC)C(CC(=O)C[C@@H]1O[C@H](CO)[C@@H](O)[C@H](O)[C@H]1O)c1ccc2ccccc2c1 (mixture of isomers)	4.6%	14.7%	
CN(C)C(=N)NC(=N)N [METFORMIN]			Activity [3]: 21.4%; Activity [4]: 31.2%; Activity [6]: 26.9%
CCOC(=O)C(C(=O)OCC)C(CC(=O)C[C@@H]1O[C@H](CO)[C@@H](O)[C@H](O)[C@H]1O)c1cccnc1 (mixture of isomers)	37.6%		
